Assay results reported in patent US6350585B1, “Reagent for assay of amylase isozyme activity” (priority 1998, dated 2002).
Values belong to the compound of their own block, whether it stands above or below them.

Experiments:
S-type amylase = target: T1, S-type amylase (Homo sapiens, UniProt P0DUB6); experiment: S-type amylase activity assay of serum by subtraction (reagent F minus reagent G); assay type: biochemical; conditions: for S-type amylase activity value: change in absorbance with reagent F minus reagent G; for Blank, change in absorbance per minute: distilled water as sample, compositions F and G
T1 construct: Serum (1, 2 or 3); from tissue; host or cells: serum
T1 sequence (P0DUB6 16-511): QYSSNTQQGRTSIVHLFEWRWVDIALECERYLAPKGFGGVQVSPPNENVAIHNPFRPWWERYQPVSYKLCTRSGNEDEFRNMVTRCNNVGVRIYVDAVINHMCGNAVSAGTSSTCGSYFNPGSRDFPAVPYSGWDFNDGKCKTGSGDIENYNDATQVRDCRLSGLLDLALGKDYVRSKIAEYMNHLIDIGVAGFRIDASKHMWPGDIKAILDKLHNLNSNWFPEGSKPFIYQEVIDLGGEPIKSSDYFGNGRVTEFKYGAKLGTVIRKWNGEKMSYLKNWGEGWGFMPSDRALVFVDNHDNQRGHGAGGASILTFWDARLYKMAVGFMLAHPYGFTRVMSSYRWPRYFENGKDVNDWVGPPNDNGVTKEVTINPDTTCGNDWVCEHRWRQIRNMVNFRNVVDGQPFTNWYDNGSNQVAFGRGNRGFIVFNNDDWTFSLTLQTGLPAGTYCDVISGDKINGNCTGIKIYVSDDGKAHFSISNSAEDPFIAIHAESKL
Procedure: Potassium thiocyanate 140 mM
(§1) Substrate (GalG2CNP (Example) or G3CNP (Comparative Example)) 2.6 mM
S-type amylase inhibitory antibody 88E8 (manufactured by Roche Diagnostics K.K.) 15 mg/L
S-type amylase inhibitory antibody 66C7 (manufactured by Roche Diagnostics K.K.) 1.25 mg/L
(1) Distilled Water(Blank)
Each of the above-mentioned reagents (0.05 mL) was added to the above reagent F (3 mL) and the mixtures were left standing at 37° C. for 3 minutes. Then, change in absorbance at 405 nm was assayed and change in absorbance per minute was calculated (change in absorbance a). The same procedure was repeated using reagent G and change in absorbance per minute was calculated (change in absorbance b). Then, change in absorbance b was subtracted from change in absorbance a to give change in absorbance c, which was converted to S-type amylase activity value at this composition using the molecular extinction coefficient of CNP.

[1] = target: T2, S-type amylase (Calibzyme S) (Homo sapiens, UniProt P0DUB6); experiment: amylase isozyme activity assay with potassium thiocyanate as activator, S-type amylase sample; assay type: biochemical; conditions: for Relative sensitivity: G3CNP at 900 mM = 100; for Percent residual enzyme activity: composition A/B
T2 construct: purchased International Reagents Corporation Calibzyme S
T2 sequence (P0DUB6 16-511): T1 sequence (P0DUB6 16-511)
Procedure: A reagent for amylase isozyme activity assay comprising each composition as mentioned below was prepared. In the Table showing the composition, GalG2CNP (Example) is 2-chloro-4-nitrophenyl 4-O-β-D-galactopyranosylmaltoside, and G3CNP (Comparative Example) is 2-chloro-4-nitrophenylmaltotrioside.
S-type amylase-inhibiting antibody 88E8 (manufactured by Roche Diagnostics K.K.) 20 mg/L
S-type amylase-inhibiting antibody 66C7 (manufactured by Roche Diagnostics K.K.) 5 mg/L
as §1
(3) S-type Amylase (Calibzyme S, Manufactured by International Reagents Corporation)
Each sample (0.05 mL was added to the reagent A (3 mL) and the reagent B (3 mL), respectively, and the mixtures were allowed to stand at 37° C. for 3 minutes. Then, the change in absorbance at 405 nm was assayed, and the change in absorbance per minute was calculated. The results are shown in Tables 1 and 2.
In the Tables, P is the case where P-type amylase was used as the sample, and S is the case where S-type amylase was used.
Percent residual enzyme activity (%)=(change in absorbance of composition A)/(change in absorbance of composition B)×100
Relative sensitivity (%)=(change in absorbance of composition B)/(change in absorbance of Comparative Example wherein potassium thiocyanate was 900 mM)×100

S-type amylase activity value (S-type amylase; Serum 1): 44.8 IU/L
S-type amylase activity value (S-type amylase; Serum 2): 167.7 IU/L
S-type amylase activity value (S-type amylase; Serum 3): 140.7 IU/L
sensitivity (change in absorbance) compared with Comparative Example (S-type amylase; Table 6, serum samples): superior sensitivity
Blank, change in absorbance per minute (S-type amylase): 0.0003 ABS/min
Change in absorbance, Containing Antibody (Composition A) ([1]; potassium thiocyanate 0 mM): 0.9 mABS/min
Change in absorbance, Without antibody (Composition B) ([1]; potassium thiocyanate 0 mM): 14.3 mABS/min
Relative sensitivity ([1]; potassium thiocyanate 0 mM): 32.0%
Percent residual enzyme activity ([1]; potassium thiocyanate 0 mM): 6.3%
Change in absorbance, Containing Antibody (Composition A) ([1]; potassium thiocyanate 50 mM): 1.4 mABS/min
Change in absorbance, Without antibody (Composition B) ([1]; potassium thiocyanate 50 mM): 31.1 mABS/min
Relative sensitivity ([1]; potassium thiocyanate 50 mM): 69.6%
Percent residual enzyme activity ([1]; potassium thiocyanate 50 mM): 4.5%
Change in absorbance, Containing Antibody (Composition A) ([1]; potassium thiocyanate 100 mM): 1.7 mABS/min
Change in absorbance, Without antibody (Composition B) ([1]; potassium thiocyanate 100 mM): 40.2 mABS/min
Relative sensitivity ([1]; potassium thiocyanate 100 mM): 89.9%
Percent residual enzyme activity ([1]; potassium thiocyanate 100 mM): 4.2%
Change in absorbance, Containing Antibody (Composition A) ([1]; potassium thiocyanate 140 mM): 1.8 mABS/min
Change in absorbance, Without antibody (Composition B) ([1]; potassium thiocyanate 140 mM): 44.6 mABS/min
Relative sensitivity ([1]; potassium thiocyanate 140 mM): 99.8%
Percent residual enzyme activity ([1]; potassium thiocyanate 140 mM): 4.0%
Change in absorbance, Containing Antibody (Composition A) ([1]; potassium thiocyanate 200 mM): 2.2 mABS/min
Change in absorbance, Without antibody (Composition B) ([1]; potassium thiocyanate 200 mM): 50.0 mABS/min
Relative sensitivity ([1]; potassium thiocyanate 200 mM): 111.9%
Percent residual enzyme activity ([1]; potassium thiocyanate 200 mM): 4.4%
Change in absorbance, Containing Antibody (Composition A) ([1]; potassium thiocyanate 300 mM): 3.0 mABS/min
Change in absorbance, Without antibody (Composition B) ([1]; potassium thiocyanate 300 mM): 53.6 mABS/min
Relative sensitivity ([1]; potassium thiocyanate 300 mM): 119.9%
Percent residual enzyme activity ([1]; potassium thiocyanate 300 mM): 5.6%
Change in absorbance, Containing Antibody (Composition A) ([1]; potassium thiocyanate 400 mM): 3.8 mABS/min
Change in absorbance, Without antibody (Composition B) ([1]; potassium thiocyanate 400 mM): 54.5 mABS/min
Relative sensitivity ([1]; potassium thiocyanate 400 mM): 121.9%
Percent residual enzyme activity ([1]; potassium thiocyanate 400 mM): 7.0%
Change in absorbance, Containing Antibody (Composition A) ([1]; potassium thiocyanate 500 mM): 4.7 mABS/min
Change in absorbance, Without antibody (Composition B) ([1]; potassium thiocyanate 500 mM): 53.7 mABS/min
Relative sensitivity ([1]; potassium thiocyanate 500 mM): 120.1%
Percent residual enzyme activity ([1]; potassium thiocyanate 500 mM): 8.8%
Change in absorbance, Containing Antibody (Composition A) ([1]; potassium thiocyanate 600 mM): 5.7 mABS/min
Change in absorbance, Without antibody (Composition B) ([1]; potassium thiocyanate 600 mM): 51.9 mABS/min
Relative sensitivity ([1]; potassium thiocyanate 600 mM): 116.1%
Percent residual enzyme activity ([1]; potassium thiocyanate 600 mM): 11.0%
Change in absorbance, Containing Antibody (Composition A) ([1]; potassium thiocyanate 700 mM): 7.2 mABS/min
Change in absorbance, Without antibody (Composition B) ([1]; potassium thiocyanate 700 mM): 48.6 mABS/min
Relative sensitivity ([1]; potassium thiocyanate 700 mM): 108.7%
Percent residual enzyme activity ([1]; potassium thiocyanate 700 mM): 14.8%
Change in absorbance, Containing Antibody (Composition A) ([1]; potassium thiocyanate 800 mM): 8.2 mABS/min
Change in absorbance, Without antibody (Composition B) ([1]; potassium thiocyanate 800 mM): 47.1 mABS/min
Relative sensitivity ([1]; potassium thiocyanate 800 mM): 105.4%
Percent residual enzyme activity ([1]; potassium thiocyanate 800 mM): 17.4%
Change in absorbance, Containing Antibody (Composition A) ([1]; potassium thiocyanate 900 mM): 9.6 mABS/min
Change in absorbance, Without antibody (Composition B) ([1]; potassium thiocyanate 900 mM): 43.3 mABS/min
Relative sensitivity ([1]; potassium thiocyanate 900 mM): 96.9%
Percent residual enzyme activity ([1]; potassium thiocyanate 900 mM): 22.2%
Structure (SMILES): O=[N+]([O-])c1ccc(O[C@H]2O[C@H](CO)[C@@H](O[C@H]3O[C@H](CO)[C@@H](O[C@@H]4O[C@H](CO)[C@H](O)[C@H](O)[C@H]4O)[C@H](O)[C@H]3O)[C@H](O)[C@H]2O)c(Cl)c1 [GalG2CNP, 2-chloro-4-nitrophenyl 4-O-β-D-galactopyranosylmaltoside]

S-type amylase activity value (S-type amylase; Serum 1): 23.4 IU/L
S-type amylase activity value (S-type amylase; Serum 2): 87.5 IU/L
S-type amylase activity value (S-type amylase; Serum 3): 71.9 IU/L
Blank, change in absorbance per minute (S-type amylase): 0.0006 ABS/min
Change in absorbance, Containing Antibody (Composition A) ([1]; potassium thiocyanate 0 mM): 0.5 mABS/min
Change in absorbance, Without antibody (Composition B) ([1]; potassium thiocyanate 0 mM): 4.9 mABS/min
Relative sensitivity ([1]; potassium thiocyanate 0 mM): 11.0%
Percent residual enzyme activity ([1]; potassium thiocyanate 0 mM): 10.2%
Change in absorbance, Containing Antibody (Composition A) ([1]; potassium thiocyanate 50 mM): 0.7 mABS/min
Change in absorbance, Without antibody (Composition B) ([1]; potassium thiocyanate 50 mM): 14.8 mABS/min
Relative sensitivity ([1]; potassium thiocyanate 50 mM): 33.1%
Percent residual enzyme activity ([1]; potassium thiocyanate 50 mM): 4.7%
Change in absorbance, Containing Antibody (Composition A) ([1]; potassium thiocyanate 100 mM): 0.9 mABS/min
Change in absorbance, Without antibody (Composition B) ([1]; potassium thiocyanate 100 mM): 21.9 mABS/min
Relative sensitivity ([1]; potassium thiocyanate 100 mM): 49.0%
Percent residual enzyme activity ([1]; potassium thiocyanate 100 mM): 4.1%
Change in absorbance, Containing Antibody (Composition A) ([1]; potassium thiocyanate 140 mM): 1.3 mABS/min
Change in absorbance, Without antibody (Composition B) ([1]; potassium thiocyanate 140 mM): 26.6 mABS/min
Relative sensitivity ([1]; potassium thiocyanate 140 mM): 59.5%
Percent residual enzyme activity ([1]; potassium thiocyanate 140 mM): 4.9%
Change in absorbance, Containing Antibody (Composition A) ([1]; potassium thiocyanate 200 mM): 1.5 mABS/min
Change in absorbance, Without antibody (Composition B) ([1]; potassium thiocyanate 200 mM): 31.4 mABS/min
Relative sensitivity ([1]; potassium thiocyanate 200 mM): 70.2%
Percent residual enzyme activity ([1]; potassium thiocyanate 200 mM): 4.8%
Change in absorbance, Containing Antibody (Composition A) ([1]; potassium thiocyanate 300 mM): 2.2 mABS/min
Change in absorbance, Without antibody (Composition B) ([1]; potassium thiocyanate 300 mM): 39.7 mABS/min
Relative sensitivity ([1]; potassium thiocyanate 300 mM): 88.8%
Percent residual enzyme activity ([1]; potassium thiocyanate 300 mM): 5.5%
Change in absorbance, Containing Antibody (Composition A) ([1]; potassium thiocyanate 400 mM): 3.3 mABS/min
Change in absorbance, Without antibody (Composition B) ([1]; potassium thiocyanate 400 mM): 43.2 mABS/min
Relative sensitivity ([1]; potassium thiocyanate 400 mM): 96.6%
Percent residual enzyme activity ([1]; potassium thiocyanate 400 mM): 7.6%
Change in absorbance, Containing Antibody (Composition A) ([1]; potassium thiocyanate 500 mM): 4.6 mABS/min
Change in absorbance, Without antibody (Composition B) ([1]; potassium thiocyanate 500 mM): 45.8 mABS/min
Relative sensitivity ([1]; potassium thiocyanate 500 mM): 102.5%
Percent residual enzyme activity ([1]; potassium thiocyanate 500 mM): 10.0%
Change in absorbance, Containing Antibody (Composition A) ([1]; potassium thiocyanate 600 mM): 5.4 mABS/min
Change in absorbance, Without antibody (Composition B) ([1]; potassium thiocyanate 600 mM): 47.3 mABS/min
Relative sensitivity ([1]; potassium thiocyanate 600 mM): 105.8%
Percent residual enzyme activity ([1]; potassium thiocyanate 600 mM): 11.4%
Change in absorbance, Containing Antibody (Composition A) ([1]; potassium thiocyanate 700 mM): 7.0 mABS/min
Change in absorbance, Without antibody (Composition B) ([1]; potassium thiocyanate 700 mM): 47.1 mABS/min
Relative sensitivity ([1]; potassium thiocyanate 700 mM): 105.4%
Percent residual enzyme activity ([1]; potassium thiocyanate 700 mM): 14.9%
Change in absorbance, Containing Antibody (Composition A) ([1]; potassium thiocyanate 800 mM): 8.4 mABS/min
Change in absorbance, Without antibody (Composition B) ([1]; potassium thiocyanate 800 mM): 45.8 mABS/min
Relative sensitivity ([1]; potassium thiocyanate 800 mM): 102.5%
Percent residual enzyme activity ([1]; potassium thiocyanate 800 mM): 18.3%
Change in absorbance, Containing Antibody (Composition A) ([1]; potassium thiocyanate 900 mM): 10.0 mABS/min
Change in absorbance, Without antibody (Composition B) ([1]; potassium thiocyanate 900 mM): 44.7 mABS/min
Relative sensitivity ([1]; potassium thiocyanate 900 mM): 100.0%
Percent residual enzyme activity ([1]; potassium thiocyanate 900 mM): 22.4%
Structure (SMILES): O=[N+]([O-])c1ccc(O[C@H]2O[C@H](CO)[C@@H](O[C@H]3O[C@H](CO)[C@@H](O[C@H]4O[C@H](CO)[C@@H](O)[C@H](O)[C@H]4O)[C@H](O)[C@H]3O)[C@H](O)[C@H]2O)c(Cl)c1 [Example G3CNP, 2-chloro-4-nitrophenylmaltotrioside, reference compound]
